Results from patent US20130172414A1, “PHARMACEUTICAL COMPOSITION COMPRISING LEVOCARNITINE AND DOBESILATE” (TIANJIN NANKAI SHARE PHARMACEUTICAL SCIENCE & TECHNOLOGY …, priority 2010, published 2013).

Experiments:
[1] = test system: adenine-induced mice renal failure model; assay: Pharmacodynamic test, chronic renal failure model (Example 5); type: in vivo, SPF grade Kunming mice; details: for Water content of renal tissue / blood urea nitrogen (BUN) / body weight after 4 weeks / renal index / serum creatinine (Scr): 350 mg/kg once per day for 4 weeks, n=10; for values of Scr and BUN as compared with the renal failure group: 350 mg/kg, 4 weeks
Protocol: Based on intergroup consistency principle, SPF grade Kunming mice (with a body weight of about 20 to 22 g, half male and half female) were randomly divided into 5 groups (n=10) with one of them as the control group. Except for control group, 300 mg/kg (20 ml/kg·d) of adenine was administrated given to mice once per day for successive 3 days by gavage, thereby to obtain adenine-induced mice renal failure model as described in the references (see for example Pingdong Zheng et. al, “The establishment of chronic renal failure animal model with adenine, Chinese Journal of Nephrology, 1989, 5(4): 342-344; Deyu Guo et. al., “The establishment of mice model with chronic renal insufficiency”, CHINESE JOURNAL OF LABORATORY ANIMAL SCIENCE, 2001, 11(3): 142-145; and Shuling Sun et. al, “The traditional Chinese medicinal intervention and pathological observations in mice chronic renal failure model”, ZHEJIANG JOURNAL OF INTEGRATED TRADITIONAL CHINESE AND WESTERN MEDICINE, 2002, 12(4): 221-222).
Thereafter, except for the control group, based on intergroup consistency principle, the remaining 4 groups were redivided randomly into 4 groups, renal failure group, levocarnitine (350 mg/kg) group, calcium dobesilate (350 mg/kg) group, as well as levocarnitine and calcium dobesilate group (350 mg/kg) (wherein the ratio of levocamitine and calcium dobesilate is 1:1). Except for the renal failure group, mice of each group were administrated at the given dosage once per day for successive 4 weeks. Then the data for the mice of each group such as body weight, blood urea nitrogen (BUN), serum creatinine (Scr), renal index and water content of renal tissue were determined.

[2] = test system: rats in chronic renal failure model; details: cited from earlier work
mice = assay: Mice acute toxicity test (Example 7); details: mice acute toxicity
Excerpt: (§1) Toxicity Test According to the methods described in literatures (“Guiding principles for acute toxicity test of a chemical drug”, No. [H]GPT1-1, CENTER FOR DRUG EVALUATION, SFDA; Bojun Yuan et. al., “The Preclinical Safety Evaluation and Practice of New Drug”, Military Medical Science Press, 1997: 23-36[…] Bojun Yuan et. al., “Methods and Techniques for Drug ToxicologicalTest”, Chemical Industry Press, 2008: 200-210), the preparation of levocamitine and calcium dobesilate obtained from example 2 was tested for mice acute toxicity.

ischemic/reperfused rat = details: cited from earlier work
[3] = Mice acute toxicity test (Example 7); details: mouse, in vivo
Excerpt: as §1

Row | Compound | Water content of renal tissue [1] [%] | blood urea nitrogen (BUN) [1] [mmol/L] | body weight after 4 weeks [1] [g] | renal index [1] | serum creatinine (Scr) [1] [µmol/L] | values of Scr and BUN as compared with the renal failure group [1] | content of thromboxane Az in the homogenate of renal cortex [2] | level of Scr and BUN [2] | LD50 (mice) [mg/kg] | content of malonaldehyde (MDA) in renal tissue (ischemic/reperfused rat) | content of reduced glutathione (GSH) (ischemic/reperfused rat) | serum creatinine (Scr) and blood urea nitrogen (BUN) (ischemic/reperfused rat) | LD50 [3] [mg/kg]
1 | O=S(=O)([O-])c1cc(O)ccc1O.O=S(=O)([O-])c1cc(O)ccc1O.[Ca+2] [Calcium dobesilate, calcium dobesilate] | 75.9 ± 1.8 | 11.8 ± 7.0 | 31.6 ± 4.6 | 7.2 ± 0.7 | 10.0 ± 9.2 | decreased | reduce notably | decreasing | 10600 | – | – | – | –
2 | C[N+](C)(C)C[C@H](O)CC(=O)[O-] [Levocarnitine, (R)-3-carboxy-2-hydroxy-N,N,N-trimethyl-1-propanaminium hydroxide] | 76.0 ± 2.0 | 9.7 ± 5.8 | 32.3 ± 5.3 | 7.0 ± 1.3 | 21.6 ± 11.8 | decreased | – | – | – | reduce | increase | can reduce | 19200
